Columns and labels:
Assay in all cases: radiometric kinase profiling (33 PanQinase)
Assay type in all cases: biochemical
DDR2 = biological target: T1, DDR2 (Homo sapiens, UniProt Q16832); details: read-out: Inhibitory effect (%) DDR2
T1 construct: purchased Proqinase, Germany
T1 sequence (Q16832 22-855): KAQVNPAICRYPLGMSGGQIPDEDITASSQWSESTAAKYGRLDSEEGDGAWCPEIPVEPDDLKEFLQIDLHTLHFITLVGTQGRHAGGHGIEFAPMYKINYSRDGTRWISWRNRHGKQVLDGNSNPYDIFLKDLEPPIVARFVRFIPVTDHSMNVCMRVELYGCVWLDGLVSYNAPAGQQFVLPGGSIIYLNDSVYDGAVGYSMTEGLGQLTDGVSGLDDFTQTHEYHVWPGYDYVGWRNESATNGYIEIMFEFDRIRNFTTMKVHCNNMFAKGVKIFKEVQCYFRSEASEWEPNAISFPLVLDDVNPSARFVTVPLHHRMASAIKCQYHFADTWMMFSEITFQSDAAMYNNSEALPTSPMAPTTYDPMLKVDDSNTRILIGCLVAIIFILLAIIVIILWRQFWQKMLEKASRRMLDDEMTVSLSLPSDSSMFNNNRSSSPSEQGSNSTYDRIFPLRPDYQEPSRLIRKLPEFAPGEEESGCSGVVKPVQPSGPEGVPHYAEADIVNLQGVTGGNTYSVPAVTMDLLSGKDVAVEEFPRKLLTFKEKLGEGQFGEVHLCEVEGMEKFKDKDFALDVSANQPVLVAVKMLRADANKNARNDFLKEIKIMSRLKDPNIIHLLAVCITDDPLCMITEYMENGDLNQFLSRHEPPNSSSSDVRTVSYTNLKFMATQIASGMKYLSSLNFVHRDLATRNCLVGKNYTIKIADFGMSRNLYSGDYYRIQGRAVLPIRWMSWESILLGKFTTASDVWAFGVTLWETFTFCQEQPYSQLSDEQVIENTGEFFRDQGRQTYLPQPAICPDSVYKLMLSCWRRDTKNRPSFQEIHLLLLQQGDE
Experimental: (§1) The kinase inhibition profile of the compounds was determined by testing 96 protein kinases’ activity using a radiometric protein kinase assay (33 PanQinase® Activity Assay, Proqinase, Germany). In brief, 10 µL of non-radioactive ATP solution (in H2O), 25 µL of assay buffer/[γ-33 P]-ATP mixture, 5 µL of 0.1 μM the tested compound in 10% DMSO and 10 µL of enzyme/substrate were mixed in 96-well FlashPlatesTM (Perkin Elmer, Boston, MA, USA). The reaction was conducted at 30 °C for 60 min. To stop the reaction, 50 µL of 2% (v/v) H3PO4 was added into the protein kinase reaction cocktails. After which, with 200 µL 0.9% (w/v) NaCl twice, the incorporation of ^33 Pi (counting of “cpm”) was determined with a microplate scintillation counter (Wallac Microbeta, Boston, MA, USA). All protein kinase assays were performed using a BeckmanCoulter Biomek 2000/SL robotic system (Brea, CA, USA). The residual activity (in %) for each compound was normalized to 100% enzyme activity (untreated control) and background (negative control).

RPS6KB1 = biological target: T2, RPS6KB1 (Homo sapiens, UniProt P23443); details: read-out: Inhibitory effect (%) RPS6KB1
T2 construct: purchased ProQinase (33PanQinase Activity Assay)
Experimental: as §1

PRKD2 = biological target: T3, PRKD2 (Homo sapiens, UniProt Q9BZL6); details: read-out: Inhibitory effect (%) PRKD2
T3 construct: purchased ProQinase (33PanQinase Activity Assay)
T3 sequence (Q9BZL6 1-878): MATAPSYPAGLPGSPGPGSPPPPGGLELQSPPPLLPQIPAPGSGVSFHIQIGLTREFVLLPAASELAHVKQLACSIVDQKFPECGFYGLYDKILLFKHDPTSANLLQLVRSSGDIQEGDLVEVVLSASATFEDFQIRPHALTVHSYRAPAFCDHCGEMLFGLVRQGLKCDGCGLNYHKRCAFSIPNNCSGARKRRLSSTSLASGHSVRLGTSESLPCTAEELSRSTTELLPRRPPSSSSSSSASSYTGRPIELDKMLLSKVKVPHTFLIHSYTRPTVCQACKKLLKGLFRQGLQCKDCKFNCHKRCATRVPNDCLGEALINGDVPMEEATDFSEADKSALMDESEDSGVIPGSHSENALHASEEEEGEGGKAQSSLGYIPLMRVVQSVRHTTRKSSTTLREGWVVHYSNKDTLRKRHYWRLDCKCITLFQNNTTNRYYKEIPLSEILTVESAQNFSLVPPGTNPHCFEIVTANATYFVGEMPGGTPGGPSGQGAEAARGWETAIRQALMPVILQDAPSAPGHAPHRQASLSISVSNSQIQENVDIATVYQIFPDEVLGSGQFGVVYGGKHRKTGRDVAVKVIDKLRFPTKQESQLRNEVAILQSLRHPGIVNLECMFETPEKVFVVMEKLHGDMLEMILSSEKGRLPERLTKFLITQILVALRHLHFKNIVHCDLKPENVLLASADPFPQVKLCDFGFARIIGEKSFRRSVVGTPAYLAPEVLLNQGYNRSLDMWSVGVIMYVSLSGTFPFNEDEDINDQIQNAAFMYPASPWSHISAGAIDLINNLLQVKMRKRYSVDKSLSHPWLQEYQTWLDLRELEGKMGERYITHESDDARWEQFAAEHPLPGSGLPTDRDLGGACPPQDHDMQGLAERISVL
Experimental: as §1

DCLK2 = biological target: T4, DCLK2 (Homo sapiens, UniProt Q8N568); details: read-out: Inhibitory effect (%) DCLK2
T4 construct: purchased Proqinase, Germany
T4 sequence (Q8N568 1-766): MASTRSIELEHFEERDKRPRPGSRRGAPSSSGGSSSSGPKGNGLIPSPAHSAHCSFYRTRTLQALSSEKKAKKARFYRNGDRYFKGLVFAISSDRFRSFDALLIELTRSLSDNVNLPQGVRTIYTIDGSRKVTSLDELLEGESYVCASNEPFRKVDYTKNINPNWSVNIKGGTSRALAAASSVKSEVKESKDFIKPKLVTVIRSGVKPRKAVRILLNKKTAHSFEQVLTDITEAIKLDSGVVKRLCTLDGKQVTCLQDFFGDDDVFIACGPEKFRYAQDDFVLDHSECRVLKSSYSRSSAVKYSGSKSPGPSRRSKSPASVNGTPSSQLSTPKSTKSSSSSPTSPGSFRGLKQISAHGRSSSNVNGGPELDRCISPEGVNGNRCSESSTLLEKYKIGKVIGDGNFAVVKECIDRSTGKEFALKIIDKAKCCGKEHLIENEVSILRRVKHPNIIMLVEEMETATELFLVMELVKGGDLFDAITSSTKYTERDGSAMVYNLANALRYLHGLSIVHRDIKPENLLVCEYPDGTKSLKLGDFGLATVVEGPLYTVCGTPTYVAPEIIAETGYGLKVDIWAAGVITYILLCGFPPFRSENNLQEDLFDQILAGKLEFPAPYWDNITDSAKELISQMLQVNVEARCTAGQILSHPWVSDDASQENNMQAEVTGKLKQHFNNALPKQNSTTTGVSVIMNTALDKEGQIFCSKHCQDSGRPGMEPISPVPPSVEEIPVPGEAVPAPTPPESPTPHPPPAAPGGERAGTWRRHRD
Experimental: as §1

T2 sequence (P23443 whole entry): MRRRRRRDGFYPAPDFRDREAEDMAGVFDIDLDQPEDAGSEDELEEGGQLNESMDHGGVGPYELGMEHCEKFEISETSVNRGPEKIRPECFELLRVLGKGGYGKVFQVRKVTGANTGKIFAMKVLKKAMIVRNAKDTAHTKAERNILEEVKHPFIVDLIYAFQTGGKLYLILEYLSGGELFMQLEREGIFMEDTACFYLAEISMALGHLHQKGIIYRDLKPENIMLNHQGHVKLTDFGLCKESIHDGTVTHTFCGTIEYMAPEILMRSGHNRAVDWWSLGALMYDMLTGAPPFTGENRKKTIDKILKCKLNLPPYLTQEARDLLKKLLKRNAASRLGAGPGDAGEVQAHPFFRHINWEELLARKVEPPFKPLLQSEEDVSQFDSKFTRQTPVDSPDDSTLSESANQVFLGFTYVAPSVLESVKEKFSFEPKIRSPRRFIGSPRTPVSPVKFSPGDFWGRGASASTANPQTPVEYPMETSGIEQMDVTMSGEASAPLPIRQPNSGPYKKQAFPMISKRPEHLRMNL

**Q.** `c1ccc2c(-c3cnn4cc(-c5ccc(N6CCNCC6)cc5)cnc34)ccnc2c1` [LDN-193189, reference compound] was tested. Which inhibition at 0.1 µM (DDR2) did it give?
**A.** 10.1%

**Q.** And the inhibition at 0.1 µM (RPS6KB1)?
**A.** 13%

**Q.** What about the inhibition at 0.1 µM (PRKD2) of the same compound?
**A.** -23.1%

**Q.** And the inhibition at 0.1 µM (DCLK2)?
**A.** 9.12%

**Q.** Which results are given for `CN1CCc2cccc(c2)Nc2nccc(n2)N2CCCc3cc(ccc32)C1` [OD16]?
**A.** inhibition at 0.1 µM (DDR2): 33.5%; inhibition at 0.1 µM (RPS6KB1): -15%; inhibition at 0.1 µM (PRKD2): 32.2%; inhibition at 0.1 µM (DCLK2): -2.18%

**Q.** What does the source list for `CN1CCC(=O)NCCNc2ccn3ncc(c3n2)-c2cccc(c2)C1` [OD29]?
**A.** inhibition at 0.1 µM (DDR2): 12.9%; inhibition at 0.1 µM (RPS6KB1): -3.52%; inhibition at 0.1 µM (PRKD2): 5.45%; inhibition at 0.1 µM (DCLK2): -15.9%

Reference: PMC8231556, “Inhibiting Endothelial Cell Function in Normal and Tumor Angiogenesis Using BMP Type I Receptor Macrocyclic Kinase Inhibitors” (Cancers, 2021)
